Counter-ions that a name gives are not always drawn.
How the values were obtained:
F. occidentalis = experiment: Field trial: catch on blue sticky traps in sweet pepper greenhouses; assay type: in vivo, Frankliniella occidentalis
Description: The biological activity of neryl (S)-2 methylbutanoate was tested in commercial crops of sweet pepper (var. Habana) grown in greenhouses at Zamora (37°42.945′N, 0°57.720′W) near Torre Pacheco in the Murcia region of Spain. The crops were about 110 cm high, planted in rows 1 m apart, and were naturally infested with a low level of F. occidentalis. Three 2-day long experiments were carried out, alternating between two nearby houses, each with an area of about 6500 m^2.
The compound was released from rubber septa (6.3 mm diameter×10.8 mm long) (100706; Aldrich, UK) that had been preextracted in hexane-dichloromethane and dried in an oven at 50° C. Septa were loaded with solutions of the test compound in hexane or with hexane alone (control). After evaporation of the solvent, the rubber septa were stored in aluminum foil bags. They were placed on traps in the field within 2 hr of preparation.
Blue plastic rectangular takitraps (10×25 cm) (Syngenta Bioline, UK), coated on both surfaces with insect glue, were suspended vertically with the base about 10 cm above crop height, by attaching them to crop support strings with a wooden clothes peg. One rubber septum was stuck to the center of the north-facing side of each trap.
Each experiment was laid out in a randomized complete block design with 20 blocks and one replicate per block. Traps were placed about 3.4 m apart down rows of sweet pepper plants with 16 m between each row of traps. The experiment compared two doses, 30 ng and 30 μg, of neryl (S)-2-methylbutanoate with a control.
Thrips caught on the blue sticky traps were examined under a stereoscopic microscope to identify their sex and to distinguish F. occidentalis from about 2% of the thrips that were other species (Thrips spp., aeolothripids, and phlaeothripids). The data were log10(x+1) transformed and analyzed by two-way ANOVA for females, males, and both sexes combined. Multiple comparisons with the control used Dunnett's multiple comparison test. Statistical analysis was carried out with Minitab 14 (Minitab Inc., Pennsylvania, USA).

[1] = system: female Western Flower Thrips; experiment: Y-tube olfactometer bioassay; assay type: in vivo, Frankliniella occidentalis; conditions: for attractant effect (in words): female Western Flower Thrips; for effect upon female Western Flower Thrips (in words): doses of 1 ng, and 100 ng
Description: Thrips were originally obtained from a commercial glasshouse and then maintained on pot chrysanthemums (Dendranthema x grandiflora (Ramat.) Kitamura) at 25° C. under a repeated cycle consisting of 18 hours of light and 6 hours of dark. The culture on chrysanthemums supplied mixed-age adult females, which were attracted to adult males in olfactometer bioassays, so these were used in the bioassays.
The Y-tube has two branches at an angle of 90° and a stem, which are all 60 mm long with internal diameters of 5 mm. The Y-tube was held horizontal and illuminated from above by four fluorescent tubes (950 lux). It was screened by a 10 cm high matt-black card wall, forming a 280 mm×280 mm square, to minimise any external visual influences. A 50 ml round glass flask with a Drechsel head was inserted in the tube before each branch and a semi-circle of filter paper (Whatman No. 1, diameter 42.5 mm), moistened with water, was placed in each to humidify the air. Connections between tubes are either made with brass swagelock connectors or by inserting narrower tubes into slightly wider tubes. All the glassware and the glass wool were rinsed thoroughly in warm water with Teepol ‘L’ neutral detergent (BDH Laboratory Supplies, Poole), then in distilled water, then in acetone, and left to dry overnight in an oven at 200° C. before each experiment. The connecting Teflon tubing and the swagelock connectors were rinsed thoroughly in warm water with Teepol ‘L’ neutral detergent, then in distilled water, then in hexane, and left to dry overnight in a fume cupboard before each run of an experiment.
Zero-grade clean air from a cylinder (supplied by British Oxygen Corporation, Manchester) was passed through an activated charcoal filter and then along Teflon tubes to two flow meters (Supelco, Sigma-Aldrich, Poole) that regulated the air flow to the two branches of a glass Y-tube. The rate in the two branches was 50 mm s^−1 (59 ml min^−1) and in the stem was 100 mm s^−1 (118 ml min^−1) and were checked with a bubble flow meter.
Adults were placed one at a time in the stem of the Y-tube, by transferring them with a fine paintbrush, and allowed to walk up the Y-tube. A choice was recorded when they first crossed a line 20 mm down either branch from the junction of the “Y”. If a choice was not made within 3 min, it was recorded as “no choice” and excluded from the analysis. Each individual was tested twice to provide two successive choices. The sample flasks, connecting tubing and Y-tube were reversed after every 5 individuals. This reduced possible bias from external influences. Each experiment consisted of 1 to 3 runs on separate days to reduce possible bias from external influences. A total of 25 individuals were tested in each run of an experiment, which lasted about 2 h. Experiments were conducted at 25±1° C.
At the start of each run, 0.2 ml of distilled water was placed on the filter paper in each flask. […] The filter papers were removed and replaced with fresh water and test and control substances every time the equipment was reversed.
It was shown that there was no preference in thrips response by testing mixed-age females (in the absence of a test composition) in the Y-tube olfactometer on 3 separate days. The apparatus was set up as before, but with only water and hexane in each flask. Since the arms of the Y-tube were reversed by rotating the stem by 180° after every five individuals, the difference in the number of choices between left and right and between arm A and arm B could be tested separately. There was no preference to the left or right or for arm A or arm B thus establishing that the apparatus was unbiased.
In each case 25 adult females were tested in 2 or 3 separate runs. The compound was applied in 1 μl hexane.
Example 1 was repeated using each of isobornyl 2-methyl butanoate, isobornyl pivalate and lavandulyl valerate in amounts of 0.1 ng. […]

[2] = 0.1 ng, filter paper placed in Teflon tube instead of glass flask

CC[C@H](C)C(=O)OC/C=C(/C)CCC=C(C)C [N(S)2MB, neryl (S)-2-methylbutanoate]
Mean catch over 2 days ± SE (N = 20) (F. occidentalis; Both sexes, high dose 30 μg on rubber septum): 22.2 ± 2.0 | Mean catch over 2 days ± SE (N = 20) (F. occidentalis; Both sexes, low dose 30 ng on rubber septum): 18.7 ± 1.7 ns | Mean catch over 2 days ± SE (N = 20) (F. occidentalis; Females, high dose 30 μg on rubber septum): 9.1 ± 1.2 | Mean catch over 2 days ± SE (N = 20) (F. occidentalis; Females, low dose 30 ng on rubber septum): 6.8 ± 0.7 ns | Mean catch over 2 days ± SE (N = 20) (F. occidentalis; Males, high dose 30 μg on rubber septum): 13.2 ± 1.1 | Mean catch over 2 days ± SE (N = 20) (F. occidentalis; Males, low dose 30 ng on rubber septum): 11.9 ± 1.2 ns | effect on trap catches (in words) (F. occidentalis; dose of 30 μg, both sexes attracted): increased trap catches significantly

C=C(C)C(CC=C(C)C)COC(=O)CCCC (stereo not shown) [lavandulyl valerate]
Preference (%) [1, 2]: 79.2%

CCCCC(=O)OC1CC2CCC1(C)C2(C)C (stereo not shown) [isobornyl valerate]
Preference (%) ([1]; 0.002 ng compound in 1 μl hexane, adult females, combined runs): 64.8% | Preference (%) ([1]; 0.02 ng compound in 1 μl hexane, adult females, combined runs): 73.3% | Preference (%) ([1]; 0.1 ng compound in 1 μl hexane, adult females, combined runs): 76.9% | Preference (%) ([1]; 0.2 ng compound in 1 μl hexane, adult females, combined runs): 79.8% | Preference (%) ([1]; 2 ng compound in 1 μl hexane, adult females, combined runs): 60.3% | attractant effect (in words) ([1]; 0.002-2 ng (Table 1) or 0.1 ng (Example 2)): strong attractant

C=C(C)C(CC=C(C)C)COC(C)=O (stereo not shown) [lavandulyl acetate, reference compound]
attractant effect (in words) ([1]; doses of 0.1 ng, 1 ng, 10 ng, 100 ng and 1000 ng): no attractant effect

CC(C)(C)C(=O)OC1CC2CCC1(C)C2(C)C (stereo not shown) [isobornyl pivalate]
Preference (%) [1, 2]: 61.3%

CC(=O)OC/C=C(/C)CCC=C(C)C [Neryl Acetate, reference compound]
effect upon female Western Flower Thrips (in words) [1]: no effect

CC(C)=CCC/C(C)=C\COC=O [Neryl Formate, reference compound]
effect upon female Western Flower Thrips (in words) [1]: no effect

CCC(C)C(=O)OC1CC2CCC1(C)C2(C)C (stereo not shown) [Isobornyl 2-methyl butanoate, isobornyl 2-methyl butanoate]
Preference (%) [1, 2]: 72.9%

— patent publication US7985412B2, “Method of monitoring/controlling thysanoptera” (Keele University, priority 2004, dated 2011)
